Patent US10987319B2, “TFEB activator C1 ameliorates app and tau pathology and rescues cognitive deficits in neurodegenerative diseases” (Hong Kong Baptist University, priority 2018, dated 2021)

Legend:
Aβ plaques = test: Immunohistochemistry of Aβ plaques (4G8 antibody), 3×Tg mice; assay type: in vivo; conditions: 10 mg/kg oral 7 months
Experimental: Homozygous 3×Tg mice (APP KM670/671NL (Swedish), MAPT P301L, PSEN1 M146V) were produced in Hong Kong Baptist University animal house and maintained at 23±2° C. temperature, 60±15% relative humidity with free access to food and water ad libitum.
Brain sections (30 μm) were cut on a microtome and stored at 4° C. in PBS+0.1% sodium azide. Sections were permeabilized for 10 min with cold PBS containing 0.5% Triton X-100 and blocked with 3% bovine serum albumin for 1 h at room temperature.

[1] = test system: APP, APP CTFs, Aβ, LC3-II; test: Western blotting of brain tissue, 5×FAD mice; assay type: in vivo
Experimental: 5×FAD male mice were inbred with wild-type (WT, C57/BL6) female mice to produce heterozygous offspring. Offspring were genotyped to select 5×FAD (APP KM670/671NL (Swedish), APP I716V (Florida), APP V717I (London), PSEN1 M146L (A>C), PSEN1 L286V) gene mutations mice.
Brain tissues were lysed with RIPA buffer (TBS with 1% NP-40, 1% sodium deoxycholic acid, 0.1% SDS, and protease phosphatase inhibitor cocktails) and centrifuged at 15,000 RPM for 30 min. Supernatant is collected and the pellets were further lysed with 2% SDS in RIPA buffer. Protein concentration was estimated by BCA assay. […] Protein chemiluminescence signal was detected by using ECL kit and quantified using ImageJ software.

[2] = 5×FAD mice, male and female, 10 mg/kg oral 4 months

With `COc1ccccc1/C=C/C(=O)/C=C/c1ccccc1OC` [Compound C1, 1,5-bis(2-methoxyphenyl)penta-1,4-dien-3-one] the “hippocampal Aβ plaque load” value (Aβ plaques) was “reduces hippocampal Aβ plaque load”, the “LC3-II levels in brain (autophagy enhancement)” value [1, 2] was “increase in LC3-II levels” and the “levels of A3 in brain” value [1, 2] was “significantly reduced”. The “levels of APP CTFs in brain” value [1, 2] was “significantly reduced” and the “Fl-APP levels in brain” value ([1]; female 5×FAD mice, oral 4 months) was “reduced Fl-APP levels”.
